Values joined by “and” are separate entries in the source; they are usually repeats but may differ in a detail not shown here. Identical values can stand only once.
Legend:
S31N mutant of M2 (A/M2) = S31N mutant of M2 (A/M2) (Influenza A virus, UniProt P0DOF5, S31N); type: biochemical; settings: 100 µM
[1] = system: M2-S31N-expressing A/WSN/33; type: cell-based, influenza A virus; settings: read-out: A/WSN/33 (S31N) EC50

## NC12CC3CC(CC(C3)C1)C2 [Compound 1, amantadine, reference compound]
S31N mutant of M2 (A/M2)
  % S31N inhibition: 36%
[1]
  EC50: 22.5 µM

## Brc1ccc(CNC23CC4CC(CC(C4)C2)C3)s1 [Compound 11, N-[(5-bromothiophen-2-yl)methyl]adamantan-1-amine]
S31N mutant of M2 (A/M2)
  % S31N inhibition: 76% and 76/N.T. %
[1]
  EC50: 1.8 µM

Source: paper PMC4286326 (Journal of the American Chemical Society, 2014)
